Non-standard residues stand in square brackets, D forms with d. Residues, ends and D or L forms follow the SMILES beside them. βAla = NCCC(=O)O
Assays:
[1] = target: Nociceptin receptor (Homo sapiens, UniProt P41146); test: Displacement of [3H]NOC from human ORL1 receptor expressed in HEK293 cells; format: cell-based
[2] = target: Mu-type opioid receptor (Rattus norvegicus, UniProt P33535); test: Displacement of [3H]DAMGO from mu opioid receptor in rat brain homogenate; format: tissue-based
Sequence of Mu-type opioid receptor (P33535 whole entry): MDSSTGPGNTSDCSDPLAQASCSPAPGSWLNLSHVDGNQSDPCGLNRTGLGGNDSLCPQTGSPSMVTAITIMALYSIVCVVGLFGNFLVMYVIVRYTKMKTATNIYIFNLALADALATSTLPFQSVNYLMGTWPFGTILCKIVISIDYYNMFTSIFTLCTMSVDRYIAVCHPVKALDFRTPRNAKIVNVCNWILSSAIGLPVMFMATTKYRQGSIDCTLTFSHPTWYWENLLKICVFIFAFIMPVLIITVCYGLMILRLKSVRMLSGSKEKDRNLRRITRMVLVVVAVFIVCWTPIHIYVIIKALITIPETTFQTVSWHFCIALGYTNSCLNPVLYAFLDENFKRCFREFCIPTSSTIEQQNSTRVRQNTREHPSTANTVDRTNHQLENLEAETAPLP

Sequence of Nociceptin receptor (P41146 whole entry): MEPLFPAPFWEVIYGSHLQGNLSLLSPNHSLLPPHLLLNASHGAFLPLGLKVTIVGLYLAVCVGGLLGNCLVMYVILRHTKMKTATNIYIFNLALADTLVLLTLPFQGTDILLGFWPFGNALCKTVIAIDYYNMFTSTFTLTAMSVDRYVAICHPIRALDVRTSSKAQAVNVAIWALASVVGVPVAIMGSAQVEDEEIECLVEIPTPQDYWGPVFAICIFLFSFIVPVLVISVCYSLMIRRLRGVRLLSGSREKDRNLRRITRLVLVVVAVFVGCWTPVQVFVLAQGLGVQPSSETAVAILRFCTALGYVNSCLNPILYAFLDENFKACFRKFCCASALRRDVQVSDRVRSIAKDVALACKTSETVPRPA

Row | Compound | IC50 [1] [nM] | IC50 [2] [nM]
1 | CC[C@H](C)[C@H](NC(=O)[C@H](CCCN=C(N)N)NC(=O)[C@H](Cc1ccc(O)cc1)NC(=O)[C@H](Cc1ccc(O)cc1)NC(=O)[C@H](CCCN=C(N)N)NC(C)=O)C(=O)N[C@@H](CCCCN)C(=O)N[C@@H](CCCCNC(=O)CCNC(=O)[C@H](Cc1ccccc1)NC(=O)[C@@H](CCCN=C(N)N)NC(=O)[C@@H](N)Cc1ccc(O)cc1)C(N)=O | 0.789 | 2.76
2 | N=C(N)NCCC[C@@H](NC(=O)[C@@H](N)Cc1ccc(O)cc1)C(=O)N[C@@H](Cc1ccccc1)C(=O)NCCC(N)=O (H-Y[dR]F[βAla]-NH2) | > 10000 | 1.18
3 | CC[C@H](C)[C@H](NC(=O)[C@H](CCCN=C(N)N)NC(=O)[C@H](Cc1ccc(O)cc1)NC(=O)[C@H](Cc1ccc(O)cc1)NC(=O)[C@H](CCCN=C(N)N)NC(C)=O)C(=O)N[C@@H](CCCCN)C(=O)NCC(=O)NCC(=O)NCC(=O)N[C@@H](CCCCNC(=O)CNC(=O)CNC(=O)CNC(=O)CNC(=O)CNC(=O)CCNC(=O)[C@H](Cc1ccccc1)NC(=O)[C@@H](CCCN=C(N)N)NC(=O)[C@@H](N)Cc1ccc(O)cc1)C(N)=O | 0.0803 | 0.0477
4 | CC[C@H](C)[C@H](NC(=O)[C@H](CCCN=C(N)N)NC(=O)[C@H](Cc1ccc(O)cc1)NC(=O)[C@H](Cc1ccc(O)cc1)NC(=O)[C@H](CCCN=C(N)N)NC(C)=O)C(=O)N[C@@H](CCCCN)C(N)=O |  | > 10000
5 | C[C@@H](NC(=O)[C@@H](N)Cc1ccc(O)cc1)C(=O)N[C@@H](Cc1ccccc1)C(=O)NCC(=O)N[C@@H](Cc1ccc(O)cc1)C(=O)N1CCC[C@H]1C(=O)N[C@@H](CO)C(N)=O [DERMORPHIN] | > 10000 | 0.538
6 | CC[C@H](C)[C@H](NC(=O)[C@H](CCCN=C(N)N)NC(=O)[C@H](Cc1ccc(O)cc1)NC(=O)[C@H](Cc1ccc(O)cc1)NC(=O)[C@H](CCCN=C(N)N)NC(C)=O)C(=O)N[C@@H](CCCCN)C(=O)N[C@@H](CCCCNC(=O)[C@H](CO)NC(=O)[C@@H]1CCCN1C(=O)[C@H](Cc1ccc(O)cc1)NC(=O)CNC(=O)[C@H](Cc1ccccc1)NC(=O)[C@@H](C)NC(=O)[C@@H](N)Cc1ccc(O)cc1)C(N)=O | 11.6 | 
7 | CC[C@H](C)[C@H](NC(=O)[C@H](CCCN=C(N)N)NC(=O)[C@H](Cc1ccc(O)cc1)NC(=O)[C@H](Cc1ccc(O)cc1)NC(=O)[C@H](CCCN=C(N)N)NC(C)=O)C(=O)N[C@@H](CCCCN)C(=O)NCC(=O)NCC(=O)NCC(=O)N[C@@H](CCCCNC(=O)CNC(=O)CNC(=O)[C@H](CO)NC(=O)[C@@H]1CCCN1C(=O)[C@H](Cc1ccc(O)cc1)NC(=O)CNC(=O)[C@H](Cc1ccccc1)NC(=O)[C@@H](C)NC(=O)[C@@H](N)Cc1ccc(O)cc1)C(N)=O | 0.0464 | 0.00236
